The record followed here is US5665754A, “Substituted pyrrolidines” (Glaxo Wellcome Inc., priority 1993, dated 1997).

The assay concerns TNFα secretion from murine elicited peritoneal macrophages. Briefly: Assay for inhibition of LPS-induced TNFα production. It counts as cell-based, mouse. Particulars: preliminary experiments. The source says:
In order to assess the ability of a compound to reduce TNFα secretion in elicited mouse peritoneal macrophages, the following protocol was employed. […] (See Scales, W. E., S. W. Chensuc, I. Otterness and S. L. Kunkel, 1989, Regulation of monokine gene expression: Prostaglandin E2 suppresses tumor necrosis factor but not interleukin-1a or b-mRNA and cell-associated bioactivity, J. Leukocytc Biology 45:416-421.). (See also Renz, H., J-H. Gong, A. Schmidt, M. Nain and Diethard Gemsa, 1988, Release of tumor necrosis factor-a from macrophages. Enhancement and suppression are dose-dependently regulated by prostaglandin E2 and cyclic nucleotides, J. Immunol. 1 41:2388-2393). […] (See Noel, L. S., M. Verghese, K. M. Connelly, L. J. Sekut and S. A. Stimpson, 1992, Type IV-specific phosphodiesterase (PDE) inhibitors suppress murine TNFα expression in vitro and in vivo-(abstract)--6th International Conference, Inflammation Research Association). TNFα secretion from murine elicited peritoneal macrophages was used as a readout for a compound's ability to raise cAMP, and/or inhibit phosphodiesterase within a cell.
Mice (female C3H mice, 15-20 gm body weight) were injected intraperitoneally with 2 mL of 5 mM sodium periodate solution. […] TNFα protein in the supernatant fluids was measured using a commercially available enzyme-linked immunosorbant assay (ELISA) (Genzyme).

Turning to `COc1ccc(C2CNC(=O)C2)cc1OC1CCCC1` (stereo not shown) [rolipram], the “LPS induced TNFα secretion from murine macrophages” value was “inhibited”.
